The target in one experiment is T1, HDAC10 (Homo sapiens, UniProt Q969S8).
T1 construct: HDAC10 1 – 667 Open Biosystems; Strep-FLAG-HALO (N); made in house; host or cells: HEK293/T17
T1 sequence (Q969S8 1-667): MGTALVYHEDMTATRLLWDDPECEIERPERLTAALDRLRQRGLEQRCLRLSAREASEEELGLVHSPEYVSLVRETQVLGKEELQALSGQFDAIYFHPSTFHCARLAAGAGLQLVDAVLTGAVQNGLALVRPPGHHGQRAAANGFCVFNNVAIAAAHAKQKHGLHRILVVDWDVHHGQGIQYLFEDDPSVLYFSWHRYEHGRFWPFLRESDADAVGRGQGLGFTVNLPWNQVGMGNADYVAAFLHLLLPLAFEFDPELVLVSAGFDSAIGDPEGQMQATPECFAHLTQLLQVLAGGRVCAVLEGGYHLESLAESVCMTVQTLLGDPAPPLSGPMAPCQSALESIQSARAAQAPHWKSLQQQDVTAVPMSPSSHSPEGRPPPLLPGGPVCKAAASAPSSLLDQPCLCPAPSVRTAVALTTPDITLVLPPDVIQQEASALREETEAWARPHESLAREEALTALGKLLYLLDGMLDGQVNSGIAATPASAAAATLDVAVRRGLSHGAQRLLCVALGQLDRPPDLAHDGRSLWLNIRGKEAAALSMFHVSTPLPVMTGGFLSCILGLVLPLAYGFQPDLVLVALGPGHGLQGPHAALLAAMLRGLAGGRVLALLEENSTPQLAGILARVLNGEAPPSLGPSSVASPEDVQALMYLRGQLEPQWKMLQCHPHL
The experiment can be described thus: In vitro deacetylation assay, HDAC10 (fluorescein-labeled N8-acetylspermidine, RP-HPLC). It is filed as biochemical. The note with it: for IC50: purified human HDAC10, read-out: IC50 HDAC10; for SI (HD6/HD10): ratio of IC50 HDAC10 divided by IC50 HDAC6.

Experiment [1] addresses T2, HDAC1 (Homo sapiens, UniProt Q13547).
T2 construct: HDAC1 1-482 Addgene; Strep-FLAG-HALO (N); made in house; host or cells: HEK293/T17
The experiment can be described thus: In vitro deacetylation assay, HDAC1 (RHKK substrate). Type of experiment: biochemical. The note with it: for IC50: purified human HDAC1, RHK[AcK]-AMC (RHKK) substrate; for SI (HD6/HD1) RHKK: ratio of IC50 HDAC1 (RHKK) divided by IC50 HDAC6.

Another experiment deals with T3, HDAC6-nanoLuc (Homo sapiens, UniProt Q9UBN7).
T3 sequence (Q9UBN7 1-1215): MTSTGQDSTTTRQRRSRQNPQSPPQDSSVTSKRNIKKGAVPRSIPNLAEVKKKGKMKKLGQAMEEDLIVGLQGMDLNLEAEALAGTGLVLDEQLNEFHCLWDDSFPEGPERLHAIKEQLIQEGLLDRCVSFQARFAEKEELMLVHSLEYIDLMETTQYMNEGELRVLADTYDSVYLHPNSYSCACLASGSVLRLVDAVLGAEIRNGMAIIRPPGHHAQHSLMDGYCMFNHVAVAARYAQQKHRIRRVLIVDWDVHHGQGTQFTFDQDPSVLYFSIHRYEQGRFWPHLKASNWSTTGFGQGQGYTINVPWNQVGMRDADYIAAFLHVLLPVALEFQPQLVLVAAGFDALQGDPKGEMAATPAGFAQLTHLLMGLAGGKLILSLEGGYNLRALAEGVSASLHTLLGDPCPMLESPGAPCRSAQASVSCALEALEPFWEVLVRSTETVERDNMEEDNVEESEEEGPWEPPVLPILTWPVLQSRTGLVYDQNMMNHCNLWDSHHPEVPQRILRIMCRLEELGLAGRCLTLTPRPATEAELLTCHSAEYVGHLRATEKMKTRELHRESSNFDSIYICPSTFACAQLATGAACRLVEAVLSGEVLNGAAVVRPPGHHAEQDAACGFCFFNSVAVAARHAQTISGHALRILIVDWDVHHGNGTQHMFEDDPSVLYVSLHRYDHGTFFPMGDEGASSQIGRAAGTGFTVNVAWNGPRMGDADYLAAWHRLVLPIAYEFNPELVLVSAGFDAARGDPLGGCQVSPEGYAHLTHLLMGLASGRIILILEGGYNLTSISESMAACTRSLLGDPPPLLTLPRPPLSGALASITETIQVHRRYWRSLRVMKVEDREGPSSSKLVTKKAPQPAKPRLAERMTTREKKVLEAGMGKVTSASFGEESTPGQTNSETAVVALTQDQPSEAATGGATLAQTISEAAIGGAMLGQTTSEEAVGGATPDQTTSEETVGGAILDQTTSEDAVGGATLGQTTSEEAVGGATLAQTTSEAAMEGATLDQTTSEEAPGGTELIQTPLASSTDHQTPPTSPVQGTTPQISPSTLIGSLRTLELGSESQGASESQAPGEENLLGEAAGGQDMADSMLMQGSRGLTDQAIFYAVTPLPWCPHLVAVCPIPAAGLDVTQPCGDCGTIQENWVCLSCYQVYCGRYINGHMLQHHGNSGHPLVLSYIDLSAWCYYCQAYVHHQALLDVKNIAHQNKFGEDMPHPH
The experiment can be described thus: nanoBRET target engagement assay, HDAC6. It is filed as cell-based. Particulars: HEK293T/17 cells stably expressing HDAC6-nanoLuc, 2 h.

A further experiment concerns the target HDAC1-nanoLuc (Homo sapiens, UniProt Q13547). The experiment can be described thus: nanoBRET target engagement assay, HDAC1. It is filed as cell-based. The note with it: HEK293T/17 cells stably expressing HDAC1-nanoLuc, 2 h.
Experiment [2] has as its target T2, HDAC1. The experiment can be described thus: In vitro deacetylation assay, HDAC1 (GAK substrate). Type of experiment: biochemical. The note with it: for IC50: purified human HDAC1, GAK substrate 10 µM.
In another experiment the test system is tubulin acetylation. The experiment can be described thus: Tubulin acetylation in RPMI-8226 cells by quantitative Western blotting. It is filed as cell-based. The note with it: Homo sapiens, RPMI-8226, 6 h; read-out: IC50 tubulin deacetylation (relative tubulin acetylation).

T2 sequence (Q13547 whole entry): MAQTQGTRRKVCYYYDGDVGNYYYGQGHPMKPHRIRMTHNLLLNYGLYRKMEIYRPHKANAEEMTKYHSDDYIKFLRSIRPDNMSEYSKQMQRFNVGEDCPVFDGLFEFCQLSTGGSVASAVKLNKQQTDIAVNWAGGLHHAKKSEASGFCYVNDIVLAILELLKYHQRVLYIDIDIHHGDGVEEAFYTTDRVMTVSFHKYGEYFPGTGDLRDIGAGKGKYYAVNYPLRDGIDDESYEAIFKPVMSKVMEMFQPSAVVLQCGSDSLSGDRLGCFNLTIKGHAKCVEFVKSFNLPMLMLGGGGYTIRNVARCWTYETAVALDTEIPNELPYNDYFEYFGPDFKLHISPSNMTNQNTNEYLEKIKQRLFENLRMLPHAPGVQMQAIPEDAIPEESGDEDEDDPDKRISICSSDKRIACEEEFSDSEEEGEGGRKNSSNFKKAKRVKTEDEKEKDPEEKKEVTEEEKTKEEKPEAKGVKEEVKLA
Sequence of HDAC1-nanoLuc (Q13547 whole entry): as above

On to `CS(=O)(=O)N(Cc1ccc(-c2nnc(C(F)F)o2)cn1)c1cccc(Cl)c1` [compound 7, N-(3-chlorophenyl)-N-((5-(5-(difluoromethyl)-1,3,4-oxadiazol-2-yl)pyridin-2-yl)methyl)methanesulfonamide], for which the IC50 is above 50 µM on HDAC10, above 50 µM on HDAC1 [1], above 50 µM against HDAC1 [2] and 0.616 µM in the experiment with tubulin acetylation. Also, the “SI (HD6/HD10)” value at HDAC10 is >25,000. The “SI (HD6/HD1) RHKK” value at HDAC1 [1] is on record as >25,000. The EC50 was 0.16 µM at HDAC6-nanoLuc and above 50 µM at HDAC1-nanoLuc.

Regarding `O=C(NO)c1cnc(NC2(c3cccc(F)c3)CCCCC2)nc1` [ACY-775], the IC50 at HDAC10 came to 0.034 µM; at HDAC1 [1] it was 21.7 µM; against HDAC1 [2], 1.19 µM; in the experiment with tubulin acetylation, 0.426 µM. Further, the “SI (HD6/HD10)” value on HDAC10 was 30.6. The “SI (HD6/HD1) RHKK” value on HDAC1 [1] is 19,550. Moreover, the EC50 on HDAC6-nanoLuc is 0.27 µM; at HDAC1-nanoLuc, above 50 µM; on HDAC1 [2] (Figure 2C, in vitro data (GAK) in μM), 1.19 µM. Further, at HDAC1 [2] (ratio of IC50 HDAC1 (GAK) divided by IC50 HDAC6), the “SI (HD6/HD1) GAK, in vitro” value was 1076.

The values are drawn from PMC10003107, “Selectivity of Hydroxamate- and Difluoromethyloxadiazole-Based Inhibitors of Histone Deacetylase 6 In Vitro and in Cells” (International Journal of Molecular Sciences, 2023).
